Source: patent US20040067561A1, “Process for the production of L-lysine using coryneform bacteria” (priority 2002, published 2004)

Test system: Corynebacterium glutamicum strain DSM13994_Hdap_s
Assay: Screening on LB agar plates containing 4-hydroxydiaminopimelic acid (growth of colonies)
Type: cell-based
Conditions: 10 g/l in LB agar, observed over 48 hours; UV mutant clone DSM13994_Hdap_s compared to parent DSM13994
Procedure: For screening on colonies that are sensitive to 4-hydroxy-diaminopimelic acid, the strain DSM13994 after UV mutagenesis (Sambrook et al., Molecular Cloning: A Laboratory Manual. 2nd Edition, Cold Spring Harbor, New York, 1989) is plated out on LB agar plates containing 4-hydroxydiaminopimelic acid. The agar plates are supplemented with 10 g/l of 4-hydroxydiaminopimelic acid. The growth of the colonies is observed over 48 hours. At this concentration mutants sensitive to 4-hydroxydiamino-pimelic acid may be differentiated from the unaltered parent strain by a delayed growth. […] The strain is identified as DSM13994_Hdap_s.

## N[C@H](CC(O)C[C@H](N)C(=O)O)C(=O)O (stereo partly shown) [4-hydroxydiaminopimelic acid]
  growth of the colonies: substantially delayed growth
